6 compounds from patent US7960569B2, “Indole antagonists of P2Y1 receptor useful in the treatment of thrombotic conditions” (Bristol-Myers Squibb Company, priority 2006, dated 2011) can be followed below.

For the assay, the target named is T1, cloned human P2Y1 receptors (Homo sapiens, UniProt P47900).
T1 construct: expressed in transfected cells
Briefly: Binding Assay A: membrane binding assay, inhibition of [33P] 2MeS-ADP binding (WGA FlashPlates). The source says:
A membrane binding assay was used to identify inhibitors of [^33P] […] The cDNA clone for human P2Y1 was obtained from Incyte Pharmaceuticals and its sequence confirmed by established techniques (for a compendium of techniques used see Ausubel, F. et al. Current Protocols in Molecular Biology 1995 John Wiley and Sons, NY, N.Y.). The essential coding sequences were subcloned into pcDNA 3.1 (Invitrogen) to produce a P2Y1 expression construct. This construct was then transfected into the human embryonic kidney cell line HEK-293 and stable transfectants selected in Genetcin® (G418 sulfate; Life Technologies). […] Membranes were prepared by growing HEK293 #49 in 150 mm dishes in DMEM/10% FBS in the presence of 1 mg/ml G418 until cells were 80-90% confluent. Plates were then washed with cold (4° C.) D-PBS twice and cells harvested by scraping into 10 mL D-PBS. Cells were pelleted by centrifugation (1,000 g, 10 min, 4° C.) and the resulting pellet resuspended in Lysis Buffer (10 mM Tris (7.4), 5 mM MgCl2 containing Complete® protease inhibitor cocktail (Roche Cat #1873580) as recommended by the manufacturer). The suspension was then homogenized in a Dounce homogenizer (10-15 strokes; B pestle, on ice) and the homogenate spun at 1,000 g, 4° C., 5 min to pellet large debris. The supernatant was centrifuged at 150,000 g, 4° C., for 1 hour and the resulting membrane pellet resuspended in 0.5-1 mL of Buffer B (15 mM HEPES (7.4), 145 mM NaCl, 0.1 mM MgCl2, 5 mM EDTA, 5 mM KCl) and stored at −70° C. until used.
Binding reactions were performed in WGA FlashPlates (PerkinElmer Life Sciences, Cat # SMP105A) in a volume of 200 μL containing ˜45 fmol of P2Y1 receptor (5 μg of total protein), 0.5 nM [^33P] […] Reactions were allowed to proceed to completion at room temperature for 1 hour and then the aqueous solution aspirated. Plates were sealed and the residual [^33P] bound to the plate determined by scintillation counting.

Structures can show the parent of a compound that is named as a salt.

T1 sequence (P47900 whole entry): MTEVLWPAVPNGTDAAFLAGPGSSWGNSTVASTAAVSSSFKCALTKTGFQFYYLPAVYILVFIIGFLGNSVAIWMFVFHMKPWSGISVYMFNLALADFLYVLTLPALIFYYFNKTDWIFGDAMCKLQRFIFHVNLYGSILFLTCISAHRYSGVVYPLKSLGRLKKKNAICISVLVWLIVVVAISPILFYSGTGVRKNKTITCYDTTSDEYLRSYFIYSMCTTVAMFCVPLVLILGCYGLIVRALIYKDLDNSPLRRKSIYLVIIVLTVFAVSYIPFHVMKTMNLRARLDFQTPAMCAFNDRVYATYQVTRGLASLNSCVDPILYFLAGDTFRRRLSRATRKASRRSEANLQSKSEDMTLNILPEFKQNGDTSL

One may read the Ki as a measure of affinity in units of concentration, obtained from inhibition or displacement. The low end stands for a stronger hold on the target, the high end for a looser hold on the target. As to `CC(C)c1ccccc1-c1cn(C(=O)Nc2ccccc2)c2ccccc12` [Example 1, 3-(2-isopropylphenyl)-N-phenyl-1H-indole-1-carboxamide], the Ki came to 75 nM. This counts as double-digit nanomolar. The result for `CC(C)c1ccccc1-c1cn(C(=O)Nc2ccc(N(C)C)cc2)c2ccccc12` [Example 12, N-(4-(dimethylamino)phenyl)-3-(2-isopropylphenyl)-1H-indole-1-carboxamide 2,2,2-trifluoroacetic acid salt] reads 117 nM; that for `CC(C)c1ccccc1-c1cn(C(=O)Nc2ccc(-c3ccccc3)cc2)c2ccccc12` [Example 27, N-(biphenyl-4-yl)-3-(2-isopropylphenyl)-1H-indole-1-carboxamide], 144 nM.

For `CN(C)Cc1ccccc1-c1cn(C(=O)Nc2ccc(OC(F)(F)F)cc2)c2ccccc12` [Example 33, 3-(2-((dimethylamino)methyl)phenyl)-N-(4-(trifluoromethoxy)phenyl)-1H-indole-1-carboxamide bis(2,2,2-trifluoroacetic acid) salt], the Ki was 1300 nM. Next, `CC(C)c1ccccc1-c1cn(C(=O)Nc2ccc(I)cc2)c2ccccc12` [Example 40, N-(4-iodophenyl)-3-(2-isopropylphenyl)-1H-indole-1-carboxamide]: 96 nM; `CC(C)c1ccccc1-n1cc(C(=O)Nc2ccc(N3CCOCC3)cc2)c2ccccc21` [Example 53, 1-(2-isopropylphenyl)-N-(4-morpholinophenyl)-1H-indole-3-carboxamide 2,2,2-trifluoroacetic acid salt]: 1210 nM.
